Where two headings read alike, the source gives them in different places.

For data set [1] the following is noted: cited from earlier work.
Data set [2] concerns human iPSC-CM (iCell Cardiomyocytes2). In words: Spent-media metabolomics (LC-MS) cardiotoxicity prediction models, blinded test set. Particulars: for Global Tox Model Prediction: cardiotoxic vs non-cardiotoxic, at the Exposure (μM) listed per compound in Table 3, model from confirmed metabolites and viability; for Functional Model Prediction: functional vs general/structural cardiotoxicants, at the Exposure (μM) listed per compound in Table 3.

The subject of data set [3] is human iPSC-CM (iCell Cardiomyocytes). The experiment in a line: Dose-response cell viability (CellTiter-Fluor) in iPSC-derived cardiomyocytes, maximum acceptable viability exposure. The format is cell-based. As for the experimental part:
Metabolomic data was acquired to identify non-cytotoxic exposure levels and identify biomarkers of cardiotoxicity from a dose-response experiment using spent medium of iPSC-CM treated with 53 of the compounds in the training set. Briefly, human iPSC-CM (iCell® Cardiomyocytes, cat #R1007, Cellular Dynamics International) were exposed to eight concentrations of each training set compound. Spent media was collected for LC-MS analysis and cell viability was assessed with the CellTiter-Fluor Cell Viability Assay (Promega). Spent media samples were prepared and analyzed using the methods developed in Specific Aim 1. The spent media samples from iPSC-CM treated with 10 representative cardiotoxic and non-cardiotoxic compounds were analyzed with all four LC-MS methods to rank biological significant secretome features by predictive capacity. […]
The goal of the concentration-response phase of biomarker identification was to identify non-cytotoxic exposure levels that change iPSC-CM metabolism. The method included modeling feature response, calculating maximum acceptable viability (MAVE), determining response at Cmax, and MAVE, reviewing the top 4 responding features, and selecting the highest tested exposure with 90% viability.

The mark [4] stands for this setting: highest exposure tested with ≥90% viability, iPSC-CM, eight concentrations.

Turning to `CC(=O)Oc1ccccc1C(=O)O` [Acetylsalicylic Acid], in data set [1] (therapeutic total Cmax), the “Cmax Total” value was 10000 nM. In data set [2], the “Global Tox Model Prediction” value was “−” and the “Functional Model Prediction” value was “−”.
For `CC(C)COCC(CN(Cc1ccccc1)c1ccccc1)N1CCCC1` (stereo not drawn) [Bepridil], the “Cmax Total” value in data set [1] (therapeutic total Cmax) is 3300 nM. In data set [2], the “Global Tox Model Prediction” value was “+” and the “Functional Model Prediction” value is on record as “+”.
As for `CS(=O)(=O)OCCCCOS(C)(=O)=O` [Busulfan], the “Cmax Total” value in data set [1] (therapeutic total Cmax) was 50000 nM. For the same molecule, in data set [2], the “Global Tox Model Prediction” value is on record as “+” and the “Functional Model Prediction” value was “−”.
Turning to `O=C(O)COCCN1CCN(C(c2ccccc2)c2ccc(Cl)cc2)CC1` (stereo not drawn) [Cetirizine], the “Functional Model Prediction” value in data set [2] was “−”.
On to `CC[C@H](OC(C)=O)C(C[C@H](C)N(C)C)(c1ccccc1)c1ccccc1` [Levomethadyl Acetate], for which the “Cmax Total” value in data set [1] (in vivo) is 600 nM. In addition, in data set [2], the “Global Tox Model Prediction” value is recorded as “+” and the “Functional Model Prediction” value is reported as “+”.
`CCOC(=O)N1CCC(=C2c3ccc(Cl)cc3CCc3cccnc32)CC1` [Loratadine]: in data set [2], the “Functional Model Prediction” value is reported as “−”.
As for `CN(C)CCN(Cc1cccs1)c1ccccn1` [Methapyrilene], the “Cmax Total” value in data set [1] (therapeutic total Cmax) was 15300 nM. Further, the “MAVE (Maximum Acceptable Viability Exposure)” value (“MAVE” below) in data set [3] (human) was found to be 100 µM.
Regarding `COC(=O)c1ccc(O)cc1` [Methylparaben], the “Cmax Total” value in data set [1] (therapeutic total Cmax) was 230 nM. In data set [3] (human), the “MAVE” value came out at 100 µM.
Turning to `Cc1cn(-c2cc(NC(=O)c3ccc(C)c(Nc4nccc(-c5cccnc5)n4)c3)cc(C(F)(F)F)c2)cn1` [Nilotinib], the “Cmax Total” value in data set [1] (therapeutic total Cmax) is 3000 nM. In data set [2], the “Global Tox Model Prediction” value was “+” and the “Functional Model Prediction” value was “−”.
Take `CNCCC=C1c2ccccc2CCc2ccccc21` [Nortriptyline]: the “Cmax Total” value in data set [1] (therapeutic total Cmax) is 570 nM. Further, in data set [3] (human), the “MAVE” value amounted to 1 µM.
In the case of `CCCN1C[C@H](CSC)C[C@@H]2c3cccc4[nH]cc(c34)C[C@H]21` [Pergolide], the “Cmax Total” value in data set [1] (therapeutic total Cmax) was 3 nM. In addition, in data set [3] (human), the “MAVE” value stood at 30 µM.
As to `CCCOC(=O)c1cc(O)c(O)c(O)c1` [Propyl Gallate], the “Cmax Total” value in data set [1] (therapeutic total Cmax) was 3000 nM. In addition, the “MAVE” value in data set [3] (human) was 30 µM.
For the molecule `CNC(=C[N+](=O)[O-])NCCSCc1ccc(CN(C)C)o1` [Ranitidine], the “Cmax Total” value in data set [1] (therapeutic total Cmax) is 1700 nM. In addition, in data set [3] (human), the “MAVE” value was found to be 100 µM.
On to `CS(=O)(=O)c1ccc(C2=C(c3ccccc3)C(=O)OC2)cc1` [Rofecoxib], for which, in data set [1] (therapeutic total Cmax), the “Cmax Total” value is 1700 nM. Also, the “MAVE” value in data set [3] (human) is 100 µM.
`CN(CCOc1ccc(CC2SC(=O)NC2=O)cc1)c1ccccn1` (stereo not drawn) [Rosiglitazone]: the “Functional Model Prediction” value in data set [2] is “−”.
In the case of `O=C1NCCN1CCN1CCC(c2cn(-c3ccc(F)cc3)c3ccc(Cl)cc23)CC1` [Sertindole], the “Cmax Total” value in data set [1] (therapeutic total Cmax) was 320 nM. The “MAVE” value in data set [3] (human) was 0.3 µM.
Take `CCCc1nn(C)c2c(=O)[nH]c(-c3cc(S(=O)(=O)N4CCN(C)CC4)ccc3OCC)nc12` [Sildenafil]: in data set [2], the “Global Tox Model Prediction” value is “−” and the “Functional Model Prediction” value is reported as “−”.
For `OC[C@@H](O)[C@@H](O)[C@H](O)[C@@H](O)CO` [Sorbitol], in data set [1] (therapeutic total Cmax), the “Cmax Total” value is 3900 nM. For the same molecule, the “MAVE” value in data set [3] (human) was determined as 100 µM.
On to `CC(C)NCC(O)c1ccc(NS(C)(=O)=O)cc1` (stereo not drawn) [Sotalol], for which the “Cmax Total” value in data set [1] (therapeutic total Cmax) is 15000 nM. Further, in data set [2], the “Global Tox Model Prediction” value is “+” and the “Functional Model Prediction” value is on record as “+”.
For the molecule `OC[C@H]1O[C@@](CO)(O[C@H]2O[C@H](CO)[C@@H](O)[C@H](O)[C@H]2O)[C@@H](O)[C@@H]1O` [Sucrose], the “Cmax Total” value in data set [1] (therapeutic total Cmax) was 1800 nM. For the same molecule, in data set [2], the “Global Tox Model Prediction” value was “−” and the “Functional Model Prediction” value is “−”.
With `CCN(CC)CCNC(=O)c1c(C)[nH]c(/C=C2\C(=O)Nc3ccc(F)cc32)c1C` [Sunitinib], the “Cmax Total” value in data set [1] (therapeutic total Cmax) is 250 nM. For the same molecule, in data set [3] (human), the “MAVE” value came out at 1 µM.
On to `CCCCCNC(=N)N/N=C/c1c[nH]c2ccc(OC)cc12` [Tegaserod], for which, in data set [1] (therapeutic total Cmax), the “Cmax Total” value was 80 nM. In data set [3] (human), the “MAVE” value came out at 3 µM.
As to `CC(C)(C)c1ccc(C(O)CCCN2CCC(C(O)(c3ccccc3)c3ccccc3)CC2)cc1` (stereo not drawn) [Terfenadine], in data set [1] (therapeutic total Cmax), the “Cmax Total” value was 300 nM. In addition, in data set [3] (human), the “MAVE” value stood at 3 µM.
On to `c1ccc2[nH]c(-c3cscn3)nc2c1` [Thiabendazole], for which the “Cmax Total” value in data set [1] (therapeutic total Cmax) was 30800 nM. Besides, the “MAVE” value in data set [3] (human) came to 100 µM.
Consider `Cc1onc(-c2ccccc2)c1-c1ccc(S(N)(=O)=O)cc1` [Valdecoxib], for which the “Cmax Total” value in data set [1] (therapeutic total Cmax) was 510 nM. For the same molecule, the “MAVE” value in data set [3] (human) is 100 µM.
On to `COc1cc2c(Nc3ccc(Br)cc3F)ncnc2cc1OCC1CCN(C)CC1` [Vandetanib], for which the “Cmax Total” value in data set [1] (therapeutic total Cmax) is 3300 nM. Also, the “MAVE” value in data set [3] (human) stood at 1 µM.
For the molecule `OC[C@@H](O)[C@H](O)[C@@H](O)CO` [Xylitol], the “Cmax Total” value in data set [1] (therapeutic total Cmax) was 500 nM. For the same molecule, in data set [2], the “Global Tox Model Prediction” value was “−” and the “Functional Model Prediction” value is reported as “−”.
Turning to Arsenic Trioxide, the “Cmax Total” value in data set [1] (therapeutic total Cmax) is 12100 nM. The “MAVE” value in data set [3] (setting [4]) worked out at 10 µM.
Turning to Phenylphenol, the “Cmax Total” value in data set [1] (therapeutic total Cmax) was 90 nM. In data set [3] (setting [4]), the “MAVE” value was 100 µM.

The values are drawn from US20250264459A1, “IN VITRO ASSAY TO PREDICT CARDIOTOXICITY” (Stemina Biomarker Discovery, Inc., priority 2018, published 2025).
